# From ChEMBL document CHEMBL1201862, “PubChem BioAssay data set” (2004)
#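 1) Cells in 96-well plates. 2) Compound, 48 h, 5 concentrations. 3) Linear interpolation between surrounding doses. 4) Unreached endpoint = highest concentration. GI50 = concentration required for 50% inhibition of growth.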 Calls of active or inactive are those of the source. Cut-off read from the data, not from the text of the source: active = GI50 up to about 1.1 µM and inactive = higher.
# Assays:
# Assay in all cases: DTP human tumour cell line panel, 48 h
# NCI-H23 = test system: NCI-H23
# T47D = test system: T47D
# SF-268 = test system: SF-268
# PC-3 = test system: PC-3
# OVCAR-8 = test system: OVCAR-8
# TK-10 = test system: TK-10
# SNB-75 = test system: SNB-75
# LOX IMVI = test system: LOX IMVI
# SR = test system: SR
# HCT-15 = test system: HCT-15
# IGROV-1 = test system: IGROV-1
# A498 = test system: A498
# RPMI-8226 = test system: RPMI-8226
# MCF7 = test system: MCF7
# RXF 393 = test system: RXF 393
# HOP-92 = test system: HOP-92
# 786-0 = test system: 786-0
# EKVX = test system: EKVX
# HT-29 = test system: HT-29
# CCRF-CEM = test system: CCRF-CEM
SMILES,GI50 (NCI-H23),GI50 (T47D),GI50 (SF-268),GI50 (PC-3),GI50 (OVCAR-8),GI50 (TK-10),GI50 (SNB-75),GI50 (LOX IMVI),GI50 (SR),GI50 (HCT-15),GI50 (IGROV-1),GI50 (A498),GI50 (RPMI-8226),GI50 (MCF7),GI50 (RXF 393),GI50 (HOP-92),GI50 (786-0),GI50 (EKVX),GI50 (HT-29),GI50 (CCRF-CEM)
N#CC(C#N)=C1C(=Cc2ccc(OCCCCCCCCCCSSCCCCCCCCCCOc3ccc(C=C4C(=C(C#N)C#N)c5ccccc5C4=C(C#N)C#N)cc3)cc2)C(=C(C#N)C#N)c2ccccc21,17.3 µM (inactive),31.6 µM (inactive),19.5 µM (inactive),20.8 µM (inactive),31 µM (inactive),47.4 µM (inactive),25.7 µM (inactive),18.5 µM (inactive),19.2 µM (inactive),16.7 µM,42 µM (inactive),18.7 µM (inactive),39.2 µM (inactive),20.8 µM (inactive),22.6 µM (inactive),17.7 µM (inactive),21.8 µM (inactive),20.9 µM (inactive),19.2 µM (inactive),
Cc1cnc2nc(-c3sccc3C)cc(O)c2c1,3.7 µM (inactive),> 100 µM (inactive),10.9 µM (inactive),3.78 µM (inactive),4.06 µM (inactive),> 33.7 µM (inactive),4.32 µM (inactive),7.83 µM (inactive),0.471 µM (active),1.57 µM,1.49 µM (inactive),23.4 µM (inactive),,2.84 µM (inactive),3.42 µM (inactive),97.3 µM (inactive),4.1 µM (inactive),7.06 µM (inactive),2.4 µM (inactive),1.6 µM (inactive)
C=Cc1c(C)c(OC)cc2c1Oc1ccc(OC)c(C)c1CC2,> 100 µM (inactive),> 100 µM (inactive),> 100 µM (inactive),52.6 µM (inactive),> 100 µM (inactive),> 100 µM (inactive),84.3 µM (inactive),,> 100 µM (inactive),> 100 µM,> 100 µM (inactive),> 100 µM (inactive),> 100 µM (inactive),> 100 µM (inactive),> 100 µM (inactive),> 100 µM (inactive),> 100 µM (inactive),45.7 µM (inactive),> 100 µM (inactive),> 100 µM (inactive)
CSc1ccc(NC(=O)CCl)cc1,9.59 µM (inactive),> 10 µM (inactive),> 10 µM (inactive),3.9 µM (inactive),3.51 µM (inactive),> 10 µM (inactive),2.53 µM (inactive),5.15 µM (inactive),2.7 µM (inactive),5.97 µM,4.73 µM (inactive),,3.32 µM (inactive),3.51 µM (inactive),3.17 µM (inactive),2.63 µM (inactive),6.38 µM (inactive),> 10 µM (inactive),3.65 µM (inactive),2.43 µM (inactive)
CC(=O)c1sc(=N)n(-c2c(C)cccc2C)c1C,> 100 µM (inactive),> 100 µM (inactive),> 100 µM (inactive),> 100 µM (inactive),,> 100 µM (inactive),> 100 µM (inactive),> 100 µM (inactive),> 100 µM (inactive),> 100 µM,> 100 µM (inactive),> 100 µM (inactive),> 100 µM (inactive),> 100 µM (inactive),> 100 µM (inactive),,> 100 µM (inactive),> 100 µM (inactive),> 100 µM (inactive),> 100 µM (inactive)
CC1=NN2C(=O)CC(=O)N=C2S1,> 100 µM (inactive),> 100 µM (inactive),> 100 µM (inactive),> 100 µM (inactive),> 100 µM (inactive),> 100 µM (inactive),> 100 µM (inactive),> 100 µM (inactive),> 100 µM (inactive),> 100 µM,> 100 µM (inactive),,> 100 µM (inactive),> 100 µM (inactive),> 100 µM (inactive),> 100 µM (inactive),> 100 µM (inactive),> 100 µM (inactive),> 100 µM (inactive),> 100 µM (inactive)
CC(C)=CCc1c(OC(=O)c2c(C)cc(O)cc2O)cc(CO)c(CO)c1O,16.8 µM (inactive),6.85 µM (inactive),26.7 µM (inactive),18 µM (inactive),25 µM (inactive),26.3 µM (inactive),12.6 µM (inactive),16.2 µM (inactive),20.7 µM (inactive),17.7 µM,19.2 µM (inactive),17.3 µM (inactive),,24 µM (inactive),,17.7 µM (inactive),31.4 µM (inactive),32.4 µM (inactive),21.2 µM (inactive),> 10 µM (inactive)
Cc1nc(C)c(N2CCN(Cc3ccccc3)CC2)c(O)n1,> 100 µM (inactive),> 100 µM (inactive),> 100 µM (inactive),> 100 µM (inactive),> 100 µM (inactive),> 100 µM (inactive),,> 100 µM (inactive),> 100 µM (inactive),> 100 µM,> 100 µM (inactive),> 100 µM (inactive),> 100 µM (inactive),> 100 µM (inactive),> 100 µM (inactive),> 100 µM (inactive),> 100 µM (inactive),> 100 µM (inactive),> 100 µM (inactive),> 100 µM (inactive)
CSc1ncnc2c1cnn2Cc1cn(COCC(O)CO)nn1 (stereo not drawn),> 100 µM (inactive),> 100 µM (inactive),22.8 µM (inactive),> 100 µM (inactive),> 100 µM (inactive),> 100 µM (inactive),,> 100 µM (inactive),> 100 µM (inactive),> 100 µM,> 100 µM (inactive),> 100 µM (inactive),> 100 µM (inactive),> 100 µM (inactive),,> 100 µM (inactive),> 100 µM (inactive),> 100 µM (inactive),> 100 µM (inactive),> 100 µM (inactive)
O=C1C(Cl)=C(NCCCN2CCOCC2)C(=O)c2c(O)ccc(O)c21,1.75 µM (inactive),4.89 µM (inactive),2.84 µM (inactive),2.96 µM (inactive),3.99 µM (inactive),6.28 µM (inactive),2.38 µM (inactive),1.8 µM (inactive),2.58 µM (inactive),1.26 µM,1.9 µM (inactive),10 µM (inactive),0.0598 µM (active),1.55 µM (inactive),1.75 µM (inactive),,2.29 µM (inactive),1 µM (active),2.75 µM (inactive),1 µM (active)
CC(=O)[C@]12OC(=O)C3=C1[C@H](CC[C@@H]3C)[C@@H](C)C[C@H]2C=C(C)C,9.14 µM (inactive),6.44 µM (inactive),8.47 µM (inactive),9.2 µM (inactive),8.49 µM (inactive),,,7.93 µM (inactive),7.87 µM (inactive),7.96 µM,7.35 µM (inactive),7.96 µM (inactive),7.26 µM (inactive),8.85 µM (inactive),,1.43 µM (inactive),8.55 µM (inactive),,6.79 µM (inactive),9.44 µM (inactive)
